In patent US11946094B2, “Combination therapies and methods of use thereof” (Augusta University Research Institute, Inc., priority 2017, dated 2024):

Test system: OVCAR-8 cells
Assay: Drug-siRNA combination screen: 346-compound anticancer library at 100 nM, CCK-8 viability
Settings: OVCAR-8; for Score (sum of observed SD values for 18 genes): drug 100 nM plus siRNA knockdown of each of 18 genes, distance VAB−VA×VB in SD, single gene contributes at most +5 / −5, negative = synergy, positive = antagonism; for number of tested HDACi highly synergistic with the gene knockdown: 12 tested HDACi; for number of antagonistic/additive or highly antagonistic compounds with the gene knockdown: 346 compounds; for synergy / antagonism of drug with gene knockdowns, in words / number of genes (of 18) whose knockdown synergizes with the drug: drug 100 nM; for synergy / antagonism of drug with gene knockdowns, in words: panel of 18 siRNA knockdowns; for number of genes (of 18) whose knockdown synergizes with the drug: siRNA knockdown
Procedure: Comparisons of drug effect were performed using data generated on the same day. A minimum of two replicates was performed with drug library screening and a minimum of three replicates was done for all other tests.
Combinatorial effects were classified using two measures of combinatorial action: 1) the coefficient of drug interaction (CDI), defined as (VAB/(VA×VB)) and 2) the distance in standard deviation (SD) of VAB−(VA×VB). […] In confirmation studies significance was determined using a Student's T-test (two-tailed, unpaired) with p<0.05 indicating significance.
To measure the effect of a gene on drug effect, comparisons were made between high expressers of each gene and the wild type cells exposed to sham reagents.
In theory, CDI<1 is indicative of synergy while CDI>1 is indicative of antagonism or additive effect in a multiplicative model.

Row | Compound | Score (sum of observed SD values for 18 genes) | other results
1 | Cc1cc(O)c2c(c1)C(=O)c1cccc(O)c1C2=O [Chrysophanol] | −5.16 SD | –
2 | COc1ccc(S(=O)(=O)Nc2cccnc2Nc2ccc(O)cc2)cc1 [ABT-751] | −13.93 SD | –
3 | CC(C)C(=O)Nc1ccc([N+](=O)[O-])c(C(F)(F)F)c1 [Flutamide] | 3.96 SD | –
4 | CC(NC(=O)c1ccccc1/N=C/c1c(O)ccc2ccccc12)c1ccccc1 (centres unmarked) [Sirtinol] | −2.18 SD | –
5 | O=C(Nc1cccnc1)N1CCC(Cc2cccc(Oc3ccc(C(F)(F)F)cn3)c2)CC1 [PF-3845] | -51.78 SD | –
6 | CO[C@H]1C[C@@H]2CC[C@@H](C)[C@@](O)(O2)C(=O)C(=O)N2CCCC[C@H]2C(=O)O[C@H]([C@H](C)C[C@@H]2CC[C@@H](OC(=O)C(C)(CO)CO)[C@H](OC)C2)CC(=O)[C@H](C)/C=C(\C)[C@@H](O)[C@@H](OC)C(=O)[C@H](C)C[C@H](C)/C=C/C=C/C=C/1C [Temsirolimus] | -56.85 SD | –
7 | COc1cc(Nc2c(C#N)cnc3cc(OCCCN4CCN(C)CC4)c(OC)cc23)c(Cl)cc1Cl [Bosutinib] | −23.5 SD | –
8 | USP40: siRNA knocking down USP40; sense GGAAACUAGCUGUUAUACAtt (SEQ ID NO 35) (sense GGAAACUAGCUGUUAUACANN; antisense UGUAUAACAGCUAGUUUCCNN; listed as RNA, chemistry not given here) | – | number of tested HDACi highly synergistic with the gene knockdown: at least six; number of antagonistic/additive or highly antagonistic compounds with the gene knockdown: Twelve or fewer
9 | Nc1ccccc1NC(=O)c1ccc(CNC(=O)OCc2cccnc2)cc1 [Entinostat] | 12.38 SD | synergy / antagonism of drug with gene knockdowns, in words: frequently antagonized by knockdown of specific genes
10 | COc1cc2c(cc1O)CC[C@@H]1[C@@H]2CC[C@]2(C)[C@@H](O)CC[C@@H]12 [2-Methoxyestradiol] | −31.84 SD | –
11 | Oc1cccc(-c2nc(N3CCOCC3)c3oc4ncccc4c3n2)c1 [PI-103] | -56.96 SD | synergy / antagonism of drug with gene knockdowns, in words: synergy to the vast majority of genes
12 | COc1nc(C)cnc1NS(=O)(=O)c1cccnc1-c1ccc(-c2nnco2)cc1 [Zibotentan] | 10.07 SD | –
13 | O=S(=O)([O-])CCSSCCS(=O)(=O)[O-].[Na+].[Na+] [Dimesna] | −2.17 SD | –
14 | CO[C@H]1C[C@@H]2CC[C@@H](C)[C@@](O)(O2)C(=O)C(=O)N2CCCC[C@H]2C(=O)O[C@H]([C@H](C)C[C@@H]2CC[C@@H](OCCO)[C@H](OC)C2)CC(=O)[C@H](C)/C=C(\C)[C@@H](O)[C@@H](OC)C(=O)[C@H](C)C[C@H](C)/C=C/C=C/C=C/1C [Everolimus] | – | number of genes (of 18) whose knockdown synergizes with the drug: 14 genes
15 | NC(=O)CC[C@@H](N)C(=O)O [D-glutamine] | 0.27 SD | –
16 | CC(C)(C)c1cc(NC(=O)Nc2ccc(-c3cn4c(n3)sc3cc(OCCN5CCOCC5)ccc34)cc2)no1 [Quizartinib] | −12.85 SD | –
17 | C[C@](O)(COc1ccc(C#N)cc1)C(=O)Nc1ccc(C#N)c(C(F)(F)F)c1 [Ostarine] | −14.47 SD | –
18 | CC(O)(CS(=O)(=O)c1ccc(F)cc1)C(=O)Nc1ccc(C#N)c(C(F)(F)F)c1 (centres unmarked) [Bicalutamide] | −23.24 SD | –
19 | c1ccc2c(CCNc3ccc(Nc4ccncc4)cc3)c[nH]c2c1 [Serdemetan] | −29.35 SD | –
20 | COc1ccc(C2=N[C@@H](c3ccc(Cl)cc3)[C@@H](c3ccc(Cl)cc3)N2C(=O)N2CCNC(=O)C2)c(OC(C)C)c1 [Nutlin-3] | −5.25 SD | –
21 | Cn1cc(-c2ccc3nnc(C(F)(F)c4ccc5ncccc5c4)n3n2)cn1 [JNJ−38877605] | 2.72 SD | –
22 | CC(=O)Nc1cccc(-n2c(=O)n(C3CC3)c(=O)c3c(Nc4ccc(I)cc4F)n(C)c(=O)c(C)c32)c1 [Trametinib] | −27.77 SD | –
23 | CCc1cc(Nc2nccc(-c3c(-c4ccc(OC)c(C(=O)Nc5c(F)cccc5F)c4)nc4ccccn34)n2)c(OC)cc1N1CCC(N2CCN(S(C)(=O)=O)CC2)CC1 [GSK1904529A] | −10.83 SD | –
24 | CC(C)C[C@H](NC(=O)CNC(=O)c1cc(Cl)ccc1Cl)B1OC(=O)C(CC(=O)O)(CC(=O)O)O1 [MLN9708] | −34 SD | –
25 | Cn1cnc(N)c2ncnc1-2 [3-Methyladenine] | −24.92 SD | –

Row | Compound | Score (sum of observed SD values for 18 genes) | other results
26 | COC1=C2C[C@@H](C)C[C@H](OC)[C@H](O)[C@@H](C)/C=C(\C)[C@H](OC(N)=O)[C@@H](OC)/C=C\C=C(/C)C(=O)NC(=CC1=O)C2=O [Geldanamycin] | 4.47 SD | –
27 | CN1CCN(c2nc(C3=C(c4c[nH]c5ccccc45)C(=O)NC3=O)c3ccccc3n2)CC1 [Sotrastaurin] | −16.11 SD | –
28 | CC(/C=C/C(=O)NO)=C\[C@@H](C)C(=O)c1ccc(N(C)C)cc1 [Trichostatin A] | −38.93 SD | synergy / antagonism of drug with gene knockdowns, in words: mostly synergistic
29 | Cc1ccc2c(=O)c3cccc(CC(=O)O)c3oc2c1C [Vadimezan] | −28.75 SD | –
30 | C#Cc1cccc(Nc2ncnc3cc(OCCOC)c(OCCO)cc23)c1 [OSI-420] | −27.08 SD | –
31 | Nc1ccn([C@@H]2O[C@H](CO)[C@@H](O)C2(F)F)c(=O)n1 [Gemcitibine] | 34.12 SD | –
32 | N.N.[Cl][Pt][Cl] [Cisplatin] | −21 SD | –
33 | CC(C)[C@H](C(=O)Nc1ccc(C(=O)NO)cc1)c1ccccc1 [AR-42] | −36.88 SD | synergy / antagonism of drug with gene knockdowns, in words: mostly synergistic; number of genes (of 18) whose knockdown synergizes with the drug: 10 genes
34 | O=C(Cc1ccc(-c2ccc(OCCN3CCOCC3)cc2)cn1)NCc1ccccc1 [KX2-391] | 13.4 SD | –
35 | CN(C)CCOc1ccc(-c2nc(-c3ccncc3)c(-c3ccc4c(c3)CC/C4=N\O)[nH]2)cc1 [SB590885] | 27.34 SD | synergy / antagonism of drug with gene knockdowns, in words: antagonistic with multiple genes
36 | AZ 3146 | −22.56 SD | –
37 | KLHL5: siRNA knocking down KLHL5; sense CAGGCCGCCUUGAAUUAAAtt (SEQ ID NO 23) (sense CAGGCCGCCUUGAAUUAAANN; antisense UUUAAUUCAAGGCGGCCUGNN; listed as RNA, chemistry not given here) | – | number of tested HDACi highly synergistic with the gene knockdown: at least six; number of antagonistic/additive or highly antagonistic compounds with the gene knockdown: Twelve or fewer; number of Aurora Kinase inhibitors with significant synergy with the gene knockdown (eleven tested inhibitors): eight of the eleven
38 | S100A11: siRNA knocking down S100A11; sense GAACUAGCUGCCUUCACAAtt (SEQ ID NO 27) (sense GAACUAGCUGCCUUCACAANN; antisense UUGUGAAGGCAGCUAGUUCNN; chemistry not given here) | – | number of tested HDACi highly synergistic with the gene knockdown: 10 of 12
39 | CNC(=O)c1cc(Oc2ccc(NC(=O)Nc3cc(C(C)(C)C)nn3-c3ccc4ncccc4c3)c(F)c2)ccn1 [Rebastinib] | 17.66 SD | –
40 | COc1ccc(Cl)c(Nc2nc3ccccc3nc2NS(=O)(=O)c2cccc(NC(=O)C(C)(C)N)c2)c1 [XL147] | −30.94 SD | –
41 | AXL: siRNA knocking down AXL; sense CAGCGAGAUUUAUGACUAUtt (SEQ ID NO 15) (sense CAGCGAGAUUUAUGACUAUNN; antisense AUAGUCAUAAAUCUCGCUGNN; listed as RNA, chemistry not given here) | – | number of tested HDACi highly synergistic with the gene knockdown: at least six; number of antagonistic/additive or highly antagonistic compounds with the gene knockdown: Twelve or fewer
42 | CC(C)C[C@@H](C(=O)N[C@H](C(=O)OC1CCCC1)c1ccccc1)[C@H](O)C(=O)NO [Tosedostat] | 5.66 SD | –
43 | COc1cc2c(Oc3ccc4[nH]c(C)cc4c3F)ncnc2cc1OCCCN1CCCC1 [Cediranib] | −11.55 SD | –
44 | CN(C)CC[C@H](CSc1ccccc1)Nc1ccc(S(=O)(=O)NC(=O)c2ccc(N3CCN(Cc4ccccc4-c4ccc(Cl)cc4)CC3)cc2)cc1[N+](=O)[O-] [ABT-737] | −5.9 SD | –
45 | Cl.Cl.Clc1ccc(Nc2nnc(Cc3ccncc3)c3ccccc23)cc1 [Vatalanib 2HCI] | −3.51 SD | –
46 | O=C(Nc1ccc(OC(F)(F)F)cc1)c1sccc1NCc1ccnc2ccccc12 [OSI-930] | −0.3 SD | –
47 | CC(C)[C@]12O[C@H]1[C@@H]1O[C@]13[C@]1(O[C@H]1C[C@H]1C4=C(CC[C@@]13C)C(=O)OC4)[C@@H]2O [Triptolide] | −15.95 SD | –
48 | CC(C)n1nc(-c2ccc3oc(N)nc3c2)c2c(N)ncnc21 [INK 128] | −44.98 SD | –
49 | C[C@]12CCC(=O)C=C1CC[C@@H]1[C@@H]2[C@@H](O)C[C@@]2(C)[C@H]1CC[C@]2(O)C(=O)CO [Hydrocortisone] | −21.54 SD | –
